Measurements from paper PMC12301034, “Design and Synthesis of Boronic Chalcones with Dual Anticancer and Anti-Inflammatory Activity” (Molecules, 2025).
Like-named read-outs stand apart in the source and are kept apart here.

How the values were obtained:
SCC-25 cells = test: MTT cytotoxicity assay on SCC-25 cells; assay type: cell-based, human; conditions: for IC50: MTT, 24 h incubation, mean SEM of three experiments; for SI = IC50 NOK-si/IC50 SCC-25: selectivity index
Source text: (§1) The SCC-25 (ATCC® CRL-1628™), Detroit-562 (ATCC® CCL-138™), and THP-1 (ATCC® TIB-202™) cells were purchased from Rio de Janeiro Cell Bank (Duque de Caxias, Brazil), and NOK-si was kindly provided by Prof. Carlos Rossa from the School of Dentistry—UNESP. All the cells were cultivated according to standard conditions. Human colorectal adenocarcinoma HCT116 cell lines (ATCC® CCL-247™) expressing p53 and its p53-null isogenic derivative (HCT116 p53^−/−) were provided by B. Vogelstein (The Johns Hopkins Kimmel Cancer Center, Baltimore, MD, USA).
(§2) Cells (NOK-si, SCC-25, and Detroit-562) were grown in a DMEM medium (Dulbecco’s Modified Eagle Medium), supplemented according to the needs of each lineage, as recommended by its cell banks, with 2 mM L-glutamine, 10% or 20% fetal bovine serum (FBS), 1% antibiotic–antimycotic solution (5 mg/mL penicillin, 5 mg/mL streptomycin, and 10 mg/mL neomycin), 4.5 g/L of glucose, and 3.7 g/L of sodium bicarbonate (NaHCO3). All cell lines were cultured in flasks at 37 °C in 5% carbon dioxide (CO2) and 95% of relative humidity. The assays were conducted between the third- and the seventh-cell passage, with sub-cultures every 3–4 days to maintain exponential growth. The cell viability was checked using the trypan blue dye exclusion assay for all experiments, where over 95% of the cells were viable at the beginning of the tests. NOK-si, SCC-25, and Detroit-562 were initially thawed and cultured in 25 cm^2 cell culture flasks. Cell growth was monitored using a microscope, and the culture medium was changed periodically. Upon reaching confluency, cell dissociation was achieved by adding 5 mL of trypsin (Sigma-Aldrich, St Louis, MO, USA) and incubating the bottles in a CO2 incubator for 10 min. Subsequently, the cells were transferred to 15 mL Falcon tubes and centrifuged at 2000 rpm for 10 min. Cell counting was performed using a Countess II FL automated cell counter (ThermoFischer, Waltham, MA, USA). The cells were seeded at a density of 30,000 cells per well in 96-well plates. The plates were then incubated at 37 °C in 5% CO2 for 24 h. Following this, test compounds were incubated for another 24 h at 10 different concentrations: 50, 25, 12.5, 6.25, 3.12, 1.56, 0.78, 0.39, 0.19, and 0.097 µg/mL. After the specified time, MTT reagent (3 mg/mL) (Sigma-Aldrich, St Louis, MO, USA) dissolved in phenol-free RPMI 1640 was added and incubated for 4 h. The formed MTT crystals were solubilized using 2-propanol P.A. (Sigma-Aldrich, St Louis, MO, USA) with agitation. Absorbance was read at 562 nm using an EZ Read 400 microplate reader (Biochrom, Cambridge, UK) and ADAP 2.0 Biochrom software (version 2.0). IC50 values and graphs were calculated using Excel and Prism software (version 10.4.1). The MTT assay results were evaluated for normality using the Shapiro–Wilk test, followed by one-way ANOVA with Tukey’s post hoc test at a significance level of 5%.

NOK-si cells = test: MTT cytotoxicity assay on NOK-si normal oral keratinocytes; assay type: cell-based; conditions: 24 h incubation; for CC50: Keratinocyte, read-out: NOK-si IC50
Source text: as §1, §2

[1] = Partition coefficient (Log P), OECD 117 HPLC method
IL-1β = test: Anti-inflammatory assay, IL-1β in LPS-stimulated THP-1 cells (CBA); assay type: cell-based, human; conditions: 2 and 4 µg/mL, 24 h
Experimental: (§3) For this assay, THP-1 (BCRJ cód. 0234) cells were cultured in Roswell Park Memorial Institute (RPMI-1640, Sigma-Aldrich; Saint Louis, MO, USA) media supplemented with 2 mM L-glutamine, 1 mM sodium pyruvate, 1.50 g/L of sodium bicarbonate, and 10% fetal bovine serum. For obtaining Macrophage-like cells, 250,000 cells per well were plated in a 24-well cell culture plate. A total of 20 ng/mL of Forbol 12-miristato-13-acetato (PMA) was added to each well, and the cells were incubated for 48 h at 37 °C with 5% CO2. After the 48 h, the wells were washed with 1X PBS, and fresh RPMI-1640 media was added. The cells were then incubated for 24 h at 37 °C and 5% CO2. For the cell’s stimulations, after the 24 h, the well was washed with PBS and fresh RPMI1640 media without fetal bovine serum added. For the positive controls of the assay, 3 wells were stimulated with LPS (1 ng/µL) diluted in the same volume and media used for the drugs stimulation. Two different concentrations (2 and 4 µg/mL) were evaluated for each molecule, which were determined to be non-cytotoxic through a cell viability assay. After a 24 h period, the supernatant was removed and used in the cytokine quantification assay. A kit for inflammatory cytokines, BD® Cytometric Bead Array CBA Human Inflammatory, was employed for this assay, containing the following human cytokines: IL-8, IL-1β, IL-6, and TNF. […]

HCT116 p53^−/− cells = test: SRB cytotoxicity assay on HCT116 p53-/- cells; assay type: cell-based, human
Source text: as §1
(§4) HCT p53^+/+ and HCT p53^−/− cell lines were seeded in 96-well plates, with a concentration of 5000 cells/well, and allowed to adhere overnight. Afterwards, they were treated with serial dilutions of the compounds for an additional 48 h (compounds were prepared at 30 mM, in DMSO, and tested with a starting concentration of 50μM and 15 μM). Cells passed then through a series of essential steps (fixation with 10% trichloroacetic acid, for 1 h at 4 °C; staining with 0.4% sulforhodamine B (SRB); wash with 1% acetic acid; and solubilization with 10 mM Tris-Base); subsequently, absorbance was measured at 510 nm in a microplate reader (Biotek Instruments Inc., Synergy, MX, USA). IC50 values were determined using GraphPad Prism software, Version 7.0 (La Jolla, CA, USA).

IL-6 = test: Anti-inflammatory assay, IL-6 in LPS-stimulated THP-1 cells (CBA); assay type: cell-based, human; conditions: 2 and 4 µg/mL, 24 h
Experimental: as §3

HCT116 p53^+/+ cells = test: SRB cytotoxicity assay on HCT116 p53+/+ cells; assay type: cell-based, human
Source text: as §1, §4

TNF = test: Anti-inflammatory assay, TNF in LPS-stimulated THP-1 cells (CBA); assay type: cell-based, human; conditions: 2 and 4 µg/mL, 24 h
Experimental: For this assay, THP-1 (BCRJ cód. 0234) cells were cultured in Roswell Park Memorial Institute (RPMI-1640, Sigma-Aldrich; Saint Louis, MO, USA) media supplemented with 2 mM L-glutamine, 1 mM sodium pyruvate, 1.50 g/L of sodium bicarbonate, and 10% fetal bovine serum. For obtaining Macrophage-like cells, 250,000 cells per well were plated in a 24-well cell culture plate. A total of 20 ng/mL of Forbol 12-miristato-13-acetato (PMA) was added to each well, and the cells were incubated for 48 h at 37 °C with 5% CO2. After the 48 h, the wells were washed with 1X PBS, and fresh RPMI-1640 media was added. The cells were then incubated for 24 h at 37 °C and 5% CO2. For the cell’s stimulations, after the 24 h, the well was washed with PBS and fresh RPMI1640 media without fetal bovine serum added. For the positive controls of the assay, 3 wells were stimulated with LPS (1 ng/µL) diluted in the same volume and media used for the drugs stimulation. Two different concentrations (2 and 4 µg/mL) were evaluated for each molecule, which were determined to be non-cytotoxic through a cell viability assay. After a 24 h period, the supernatant was removed and used in the cytokine quantification assay. A kit for inflammatory cytokines, BD® Cytometric Bead Array CBA Human Inflammatory, was employed for this assay, containing the following human cytokines: IL-8, IL-1β, IL-6, and TNF. Standard cytokines were prepared in 9 different concentrations: 1:256, 1:128, 1:64, 1:32, 1:16, 1:8, 1:4, 1:2, and 1:1 (“top standard”). Analysis was performed using a Flow Cytometer FACS Aria Fusion BD (Bioscence, Houston, TX, USA). Data analysis was conducted using Prism software (version 10.4.1).

[2] = reference compounds for calibration curve; cited from earlier work
Detroit-562 cells = test: MTT cytotoxicity assay on Detroit-562 cells; assay type: cell-based; conditions: Homo sapiens; MTT, 24 h incubation, Detroit-562 metastatic pharyngeal cancer model
Source text: as §1
Cells (NOK-si, SCC-25, and Detroit-562) were grown in a DMEM medium (Dulbecco’s Modified Eagle Medium), supplemented according to the needs of each lineage, as recommended by its cell banks, with 2 mM L-glutamine, 10% or 20% fetal bovine serum (FBS), 1% antibiotic–antimycotic solution (5 mg/mL penicillin, 5 mg/mL streptomycin, and 10 mg/mL neomycin), 4.5 g/L of glucose, and 3.7 g/L of sodium bicarbonate (NaHCO3). All cell lines were cultured in flasks at 37 °C in 5% carbon dioxide (CO2) and 95% of relative humidity. The assays were conducted between the third- and the seventh-cell passage, with sub-cultures every 3–4 days to maintain exponential growth. The cell viability was checked using the trypan blue dye exclusion assay for all experiments, where over 95% of the cells were viable at the beginning of the tests. NOK-si, SCC-25, and Detroit-562 were initially thawed and cultured in 25 cm^2 cell culture flasks. Cell growth was monitored using a microscope, and the culture medium was changed periodically. […] Absorbance was read at 562 nm using an EZ Read 400 microplate reader (Biochrom, Cambridge, UK) and ADAP 2.0 Biochrom software (version 2.0). IC50 values and graphs were calculated using Excel and Prism software (version 10.4.1). The MTT assay results were evaluated for normality using the Shapiro–Wilk test, followed by one-way ANOVA with Tukey’s post hoc test at a significance level of 5%.

[3] = Homo sapiens, HCT-116, 48 h of treatment
[4] = 48 h of treatment, read-out: HCT p53^−/− IC50
[5] = 48 h of treatment, read-out: HCT p53^+/+ IC50

Compound	chromatographic logP [1]	IC50 (SCC-25 cells; Homo sapiens, SCC-25) [µM]	SI = IC50 NOK-si/IC50 SCC-25 (SCC-25 cells)	CC50 (NOK-si cells) [µM]	other results
COc1cccc(C(=O)/C=C/c2ccccc2)c1 [Compound 1]	3.73	24.9 ± 1.09	4.08	101.5 ± 0.17	reduction of IL-1β levels (IL-1β): comparable efficacy in reducing cytokine levels relative to LPS-stimulated cells; IC50 (HCT116 p53^−/− cells; [3]): 7.56 ± 0.4 µM; reduction of IL-6 levels (IL-6): lower effectiveness; IC50 (HCT116 p53^+/+ cells; [3]): 6.83 ± 1.15 µM; reduction of TNF levels (TNF): lower effectiveness
Clc1ccc(C(c2ccc(Cl)cc2)C(Cl)(Cl)Cl)cc1 [DDT]	–	–	–	–	log P of reference compounds [2]: 6.5
(E)-(3-(3-(2-bromo-4-methoxyphenyl)-3-oxoprop-1-en-1-yl)phenyl)boronic acid [Compound 8]	–	–	0.82	–	IC50 (SCC-25 cells): 33.4 ± 1.25 µM; NOK-si IC50 (NOK-si cells): 27.4 ± 3.05 µM; IC50 (HCT116 p53^−/− cells; [4]): 1.7 ± 0.72 µM; IC50 (HCT116 p53^+/+ cells; [5]): 2.06 ± 0.45 µM
(E)-(3-(3-(2-bromo-4-hydroxyphenyl)-3-oxoprop-1-en-1-yl)phenyl)boronic acid [Compound 7]	–	–	1.31	–	IC50 (SCC-25 cells): 41.1 ± 4.62 µM; NOK-si IC50 (NOK-si cells): 54.0 ± 10.98 µM; IC50 (HCT116 p53^−/− cells; [4]): 4.2 ± 0.35 µM; IC50 (HCT116 p53^+/+ cells; [5]): 3.63 ± 0.4 µM
O=c1[nH]cc(F)c(=O)[nH]1 [Compound 5-FU, 5-fluorouracil, reference compound]	–	1800	lacked selectivity	1800 ± 27.7	–
Nc1ccccc1 [aniline]	–	–	–	–	log P of reference compounds [2]: 0.9

More lines, main results first:

chromatographic logP [1]	Compound	IC50 (SCC-25 cells; Homo sapiens, SCC-25) [µM]	SI = IC50 NOK-si/IC50 SCC-25 (SCC-25 cells)	CC50 (NOK-si cells) [µM]	other results
2.3	COc1ccc(C(=O)/C=C/c2cccc(B(O)O)c2)cc1OC [Compound 6, (E)-(3-(3-(3,4-dimethoxyphenyl)-3-oxoprop-1-en-1-yl)phenyl)boronic acid]	27.2 ± 3.84	0.77	20.8 ± 2.17	–
1.64	O=C(/C=C/c1ccc(B(O)O)cc1)c1cccc(O)c1 [Compound 10, (E)-(4-(3-(3-hydroxyphenyl)-3-oxoprop-1-en-1-yl)phenyl)boronic acid]	43.8 ± 4.43	0.59	25.7 ± 11.6	–
1.18	Nc1cccc(C(=O)/C=C/c2ccc(B(O)O)cc2)c1 [Compound 9, (E)-(4-(3-(3-aminophenyl)-3-oxoprop-1-en-1-yl)phenyl)boronic acid]	108 ± 22.5	0.69	74.6 ± 15	–
2.16	COc1ccc(C(=O)/C=C/c2ccc(B(O)O)cc2)cc1OC [Compound 12, (E)-(4-(3-(3,4-dimethoxyphenyl)-3-oxoprop-1-en-1-yl)phenyl)boronic acid]	38.4 ± 1.63	0.77	29.5 ± 6.08	–
2.81	COc1cccc(C(=O)/C=C/c2ccc(B(O)O)cc2)c1 [Compound 11, (E)-(4-(3-(3-methoxyphenyl)-3-oxoprop-1-en-1-yl)phenyl)boronic acid]	65.9 ± 11	1.46	96.2 ± 21.3	IC50 (HCT116 p53^−/− cells; [3]): 3.8 ± 0.26 µM; IC50 (HCT116 p53^+/+ cells; [3]): 3.96 ± 0.55 µM
2.68	O=C(/C=C/c1cccc(B(O)O)c1)c1ccccc1 [Compound 2, (E)-(3-(3-oxo-3-phenylprop-1-en-1-yl)phenyl)boronic acid]	134 ± 12.3	1.00	133 ± 3.25	IC50 (HCT116 p53^−/− cells; [3]): 3.63 ± 0.47 µM; IC50 (HCT116 p53^+/+ cells; [3]): 4.4 ± 0.53 µM
1.49	Nc1cccc(C(=O)/C=C/c2cccc(B(O)O)c2)c1 [Compound 3, (E)-(3-(3-(3-aminophenyl)-3-oxoprop-1-en-1-yl)phenyl)boronic acid]	45.2 ± 13.7	–	36.2 ± 10.7	–
1.81	O=C(/C=C/c1cccc(B(O)O)c1)c1cccc(O)c1 [Compound 4, (E)-(3-(3-(3-hydroxyphenyl)-3-oxoprop-1-en-1-yl)phenyl)boronic acid]	9.8 ± 1	1.88	18.5 ± 4.43	IC50 (HCT116 p53^−/− cells; [3]): 2.16 ± 0.25 µM; IC50 (HCT116 p53^+/+ cells; [3]): 2.33 ± 0.2 µM; IC50 (Detroit-562 cells): 31.6 ± 3.13 µM
